Assay results as given in US12152029B2, “Crystalline forms of a MAGL inhibitor” (H. Lundbeck A/S, priority 2021, dated 2024).

Columns and labels:
Assay type in all cases: physicochemical
[1] = Solid form conversion of solvates on heating, drying or storage (XRPD)
[2] = Variable temperature XRPD of Compound (I) form 7; conditions: VT-XRPD, heating 10° C./min
Experimental: Procedure 4 carried out under non-ambient conditions: For variable temperature (VT-XRPD) experiments the samples were prepared and analysed in an Anton Paar chromed sample holder. A heating/cooling rate of 10° C./min was used. The measurement parameters are as per the standard screening data collection method (detailed in Procedure 3 above). Measurements were taken at the following temperatures: 25, 100, 145, 150, 155, 160, 165, 170, 175, and 25° C.
Compound (I) form 7 obtained using the procedure detailed in Example 2 was subjected to variable temperature X-ray powder diffraction (VT-XRPD), as described in Example 10 (“[…]”).

[3] = Dynamic vapour sorption (DVS); conditions: for water uptake up to 90% RH / hygroscopicity by DVS analysis: 25° C.; for water uptake up to 90% RH: 0% RH to 90% RH; for hygroscopicity by DVS analysis: up to 90% RH; for solid form by XRPD analysis after DVS analysis: after DVS cycle; for Hygroscopicity in DVS, uptake at 90% RH: Table 3, 90% RH
Experimental: Dynamic vapour sorption (DVS) was measured using a SMS DVS Intrinsic moisture sorption analyser changing the relative humidity from 0% RH to 90% RH. The sample temperature was maintained at 25° C. The humidity was controlled by mixing streams of dry and wet nitrogen, with a total flow rate of 200 ml/min. The relative humidity was measured by a calibrated Rotronic probe (dynamic range of 1.0-100% RH), located near the sample. The weight change of the sample as a function of % RH was constantly monitored by a balance.
Typically, 5-30 mg of sample was placed in a tared mesh stainless steel basket under ambient conditions. The sample was loaded and unloaded at 40% RH and 25° C. (typical room conditions).

[4] = Competitive slurry experiments between Compound (I) form 1 and form 7; conditions: for relative thermodynamic stability: slurry in methanol or ethanol at 5° C., room temperature and 50° C. for one week
Experimental: The relative thermodynamic stability of Compound (I) form 1 and Compound (I) form 7 was elucidated using competitive slurry experiments as detailed in the following.
Step 1: Compound (I) form 1 (150 mg) and Compound (I) form 7 (150 mg) were mixed in a 20 mL vial. 40 mg (each) of this physical mixture was placed into six 2 mL vials.
Step 2: Using the remaining 60 mg of the physical mixture, saturated solutions with methanol and ethanol, respectively, were produced. The saturated solutions were filtered off.
Step 3: 10 volumes ([…]) of each saturated solution were added to each of the six 2 mL vials mentioned in step 1.
Step 4: One vial for each solvent was kept at 5° C., room temperature and 50° C. for one week.
XRPD analysis carried out on the solids yielded a pattern substantially similar to FIG. 1 for all six vials.

[5] = Stability of HCl salt forms at accelerated (elevated) conditions; conditions: for Stability at elevated conditions: Table 3
Experimental: To further elucidate differences between the hydrochloride salt forms, their stability at accelerated conditions and their hygroscopicity was measured. The data are summarized in Table 3 together with the observations reported in Example 20.

[6] = Competitive slurry experiments between different forms of Compound (I) HCl salt
Experimental: Competitive slurry experiments between different form of Compound (I) HCl salt were performed to elucidate the relative thermodynamic stability between unsolvated crystalline forms of interest.
The resulting slurries were stirred for 3 hours to approach equilibrium conditions at either 5 or 50° C., 500 rpm. The following solvents and solvent combinations were utilized: EtOAc, MIBK, THF, MeCN, MeOH, and Acetone.
This dry powder mixture was mixed in a gyroscopic Turbula mixer for 2 hours. Then 50 mg aliquots of the mixture were weighed into HPLC vials and 0.5 mL of the above saturated solutions were added. The resulting suspensions were then stirred for 7 days.
The above competitive slurries were sampled after 1 and 7 days. The samples taken after 1 day were air dried and analyzed with XRPD. The samples taken after 7 days were first analyzed in wet state (covered with a Kapton film) in the XRPD and then subjected to air drying and analyzed again.

[7] = DVS, listed as Compound (I) HCl form 2
[8] = DVS, listed as Compound (I) HCl form 6
[9] = DVS, listed as Compound (I) HCl form 5
[10] = DVS, listed as Compound (I) HCl form 4

Which “solid form change upon drying” value ([1]; two hours in a vacuum oven at room temperature) does the source give for C1COCCO1.O=C(O)c1ccn(C(=O)N2CCC3(CCCN3Cc3ccc(C(F)(F)F)cc3N3CCCC3)CC2)n1 [Compound (I) 1,4-dioxane solvate form 1, 1-(1-(2-(pyrrolidin-1-yl)-4-(trifluoromethyl)benzyl)-1,8-diazaspiro[4.5]decane-8-carbonyl)-1H-pyrazole-3-carboxylic acid 1,4-dioxane solvate form 1] here?
The value was “transforms into Compound (I) form 1 upon drying”.

Which “temperature at which conversion to Compound (I) form 1 begins” value [2] does the source give for O=C(O)c1ccn(C(=O)N2CCC3(CCCN3Cc3ccc(C(F)(F)F)cc3N3CCCC3)CC2)n1 [Compound (I) form 7, 1-(1-(2-(pyrrolidin-1-yl)-4-(trifluoromethyl)benzyl)-1,8-diazaspiro[4.5]decane-8-carbonyl)-1H-pyrazole-3-carboxylic acid] here?
The value was 160 °C.

What about the “temperature at which exclusively Compound (I) form 1 was obtained” value [2] of the same compound?
Its value is 170 °C.

What about the “water uptake up to 90% RH” value ([3]; DVS) of the same compound?
The value was ~6%.

What about the “hygroscopicity by DVS analysis” value ([3]; DVS) of the same compound?
The value was “moderately hygroscopic”.

And the “solid form by XRPD analysis after DVS analysis” value [3]?
Its value is “still Compound (I) form 7”.

And the “form conversion in competitive slurry” value ([4]; methanol or ethanol, 5° C., room temperature, 50° C., one week)?
The value was “transforms into Compound (I) form 1 at all temperatures tested”.

Which “water uptake up to 90% RH” value ([3]; DVS) does the source give for O=C(O)c1ccn(C(=O)N2CCC3(CCCN3Cc3ccc(C(F)(F)F)cc3N3CCCC3)CC2)n1 [Compound (I) form 1, 1-(1-(2-(pyrrolidin-1-yl)-4-(trifluoromethyl)benzyl)-1,8-diazaspiro[4.5]decane-8-carbonyl)-1H-pyrazole-3-carboxylic acid] here?
Its value is < 1%.

And the “hygroscopicity by DVS analysis” value ([3]; DVS)?
Its value is “largely non-hygroscopic”.

What about the “solid form by XRPD analysis after DVS analysis” value [3] of the same compound?
The value was “still Compound (I) form 1”.

And the relative thermodynamic stability [4]?
The relative thermodynamic stability was “more thermodynamically stable than Compound (I) form 7 at all temperatures tested”.

And the relative thermodynamic stability ([4]; listed as 1-(1-(2-(pyrrolidin-1-yl)-4-(trifluoromethyl)benzyl)-1,8-diazaspiro[4.5]decane-8))?
Its relative thermodynamic stability is “thermodynamically stable”.

Which “solid form change upon drying” value ([1]; drying the solid (conditions not given)) does the source give for Cl.O=C(O)c1ccn(C(=O)N2CCC3(CCCN3Cc3ccc(C(F)(F)F)cc3N3CCCC3)CC2)n1 [Compound (I) HCl salt MIBK solvate] here?
Its value is “transforms into Compound (I) HCl salt form 2 upon drying”.

Which “water uptake compared with the other HCl salt forms” value ([3]; DVS) does the source give for Cl.O=C(O)c1ccn(C(=O)N2CCC3(CCCN3Cc3ccc(C(F)(F)F)cc3N3CCCC3)CC2)n1 [Compound (I) HCl salt form 2, 1-(1-(2-(pyrrolidin-1-yl)-4-(trifluoromethyl)benzyl)-1,8-diazaspiro[4.5]decane-8-carbonyl)-1H-pyrazole-3-carboxylic acid HCl salt form 2] here?
Its value is “lowest water uptake”.

And the “water uptake up to 90% RH” value [3, 7]?
The value was 0.5 % wt.

And the “hygroscopicity by DVS analysis” value [3, 7]?
Its value is “slightly hygroscopic”.

What about the “Hygroscopicity in DVS, uptake at 90% RH” value ([3]; listed as Form 2) of the same compound?
Its value is “(0.5 wt %”.

What about the “Stability at elevated conditions” value ([5]; listed as Form 2) of the same compound?
Its value is “No change”.

What about the “stability compared with the other HCl salt forms” value ([5]; accelerated conditions) of the same compound?
The value was “superior stability over Compound (I) HCl salt form 5 and form 6”.

With Cl.O=C(O)c1ccn(C(=O)N2CCC3(CCCN3Cc3ccc(C(F)(F)F)cc3N3CCCC3)CC2)n1 [Compound (I) HCl salt form 6] as the compound, how does the “water uptake up to 90% RH” value [3, 8] read?
Its value is 3.1 % wt.

What about the “hygroscopicity by DVS analysis” value [3, 8] of the same compound?
The value was “moderately hygroscopic”.

And the “Hygroscopicity in DVS, uptake at 90% RH” value ([3]; listed as Form 6)?
Its value is “(3.1 wt %”.

Which “solid form change upon heating” value ([1]; heating for 2 min at 175° C.) does the source give for CC(C)=O.O=C(O)c1ccn(C(=O)N2CCC3(CCCN3Cc3ccc(C(F)(F)F)cc3N3CCCC3)CC2)n1 [Compound (I) acetone solvate, 1-(1-(2-(pyrrolidin-1-yl)-4-(trifluoromethyl)benzyl)-1,8-diazaspiro[4.5]decane-8-carbonyl)-1H-pyrazole-3-carboxylic acid acetone solvate] here?
Its value is “transforms into Compound (I) form 1 at elevated temperature”.

With Cl.O=C(O)c1ccn(C(=O)N2CCC3(CCCN3Cc3ccc(C(F)(F)F)cc3N3CCCC3)CC2)n1 [Compound (I) HCl salt form 5] as the compound, how does the “water uptake up to 90% RH” value [3, 9] read?
The value was 9.2 % wt.

What about the “hygroscopicity by DVS analysis” value [3, 9] of the same compound?
Its value is “moderately hygroscopic”.

What about the “Hygroscopicity in DVS, uptake at 90% RH” value ([3]; listed as Form 5) of the same compound?
Its value is “(9.2 wt %”.

What does the source list for Cl.O=C(O)c1ccn(C(=O)N2CCC3(CCCN3Cc3ccc(C(F)(F)F)cc3N3CCCC3)CC2)n1 [Compound (I) HCl salt form 4, 1-(1-(2-(pyrrolidin-1-yl)-4-(trifluoromethyl)benzyl)-1,8-diazaspiro[4.5]decane-8-carbonyl)-1H-pyrazole-3-carboxylic acid HCl salt form 4]?
water uptake up to 90% RH [3, 10]: 1.4 % wt; hygroscopicity by DVS analysis [3, 10]: slightly hygroscopic; Hygroscopicity in DVS, uptake at 90% RH ([3]; listed as Form 4): (1.4 wt %; Stability at elevated conditions ([5]; listed as Form 4): No change

Which results are given for CC1CCCO1.Cl.O=C(O)c1ccn(C(=O)N2CCC3(CCCN3Cc3ccc(C(F)(F)F)cc3N3CCCC3)CC2)n1 [Compound (I) HCl salt 2-MeTHF solvate]?
solid form change upon storage ([1]; 40° C./75% RH for 7 days): transformed into Compound (I) HCl Form 2; solid form change upon drying ([1]; 100° C. for 10 minutes): transformed into Compound (I) HCl salt form 4

Which results are given for Cl.O=C(O)c1ccn(C(=O)N2CCC3(CCCN3Cc3ccc(C(F)(F)F)cc3N3CCCC3)CC2)n1 [Compound (I) HCl salt]?
XRPD ‘dry’ after 1 day ([6]; 5 ° C., Acetone): HCl salt Form 4; XRPD ‘dry’ after 7 days ([6]; 5 ° C., Acetone): HCl salt Form 4; XRPD ‘wet’ (Kapton film) after 7 days ([6]; 5 ° C., Acetone): metastable solvate; XRPD ‘dry’ after 1 day ([6]; 5 ° C., EtOAc): HCl salt Form 2; XRPD ‘dry’ after 7 days ([6]; 5 ° C., EtOAc): HCl salt Form 2; XRPD ‘wet’ (Kapton film) after 7 days ([6]; 5 ° C., EtOAc): metastable solvate; XRPD ‘wet’ (Kapton film) after 7 days ([6]; 5 ° C., MIBK): metastable solvate; XRPD ‘dry’ after 1 day ([6]; 5 ° C., MeCN): HCl salt Form 5; XRPD ‘dry’ after 7 days ([6]; 5 ° C., MeCN): HCl salt Form 5; XRPD ‘wet’ (Kapton film) after 7 days ([6]; 5 ° C., MeCN): metastable solvate; XRPD ‘wet’ (Kapton film) after 7 days ([6]; 5 ° C., MeOH): metastable solvate; XRPD ‘dry’ after 1 day ([6]; 5 ° C., THF): HCl salt Form 4; XRPD ‘dry’ after 7 days ([6]; 5 ° C., THF): HCl salt Form 4; XRPD ‘wet’ (Kapton film) after 7 days ([6]; 5 ° C., THF): metastable solvate; XRPD ‘dry’ after 1 day ([6]; 50 ° C., Acetone): HCl salt Form 2; XRPD ‘dry’ after 7 days ([6]; 50 ° C., Acetone): HCl salt Form 2; XRPD ‘wet’ (Kapton film) after 7 days ([6]; 50 ° C., Acetone): metastable solvate; XRPD ‘dry’ after 1 day ([6]; 50 ° C., EtOAc): HCl salt Form 2; XRPD ‘dry’ after 7 days ([6]; 50 ° C., EtOAc): HCl salt Form 2; XRPD ‘wet’ (Kapton film) after 7 days ([6]; 50 ° C., EtOAc): metastable solvate; XRPD ‘wet’ (Kapton film) after 7 days ([6]; 50 ° C., MIBK): metastable solvate; XRPD ‘dry’ after 1 day ([6]; 50 ° C., MeCN): HCl salt Form 5; XRPD ‘dry’ after 7 days ([6]; 50 ° C., MeCN): HCl salt Form 5; XRPD ‘wet’ (Kapton film) after 7 days ([6]; 50 ° C., MeCN): metastable solvate; XRPD ‘wet’ (Kapton film) after 7 days ([6]; 50 ° C., MeOH): metastable solvate; XRPD ‘dry’ after 1 day ([6]; 50 ° C., THF): HCl salt Form 4; XRPD ‘dry’ after 7 days ([6]; 50 ° C., THF): HCl salt Form 4; XRPD ‘wet’ (Kapton film) after 7 days ([6]; 50 ° C., THF): metastable solvate
